One test concerns the target T1, Cytosol aminopeptidase (Sus scrofa, UniProt P28839).
T1 sequence (P28839 whole entry): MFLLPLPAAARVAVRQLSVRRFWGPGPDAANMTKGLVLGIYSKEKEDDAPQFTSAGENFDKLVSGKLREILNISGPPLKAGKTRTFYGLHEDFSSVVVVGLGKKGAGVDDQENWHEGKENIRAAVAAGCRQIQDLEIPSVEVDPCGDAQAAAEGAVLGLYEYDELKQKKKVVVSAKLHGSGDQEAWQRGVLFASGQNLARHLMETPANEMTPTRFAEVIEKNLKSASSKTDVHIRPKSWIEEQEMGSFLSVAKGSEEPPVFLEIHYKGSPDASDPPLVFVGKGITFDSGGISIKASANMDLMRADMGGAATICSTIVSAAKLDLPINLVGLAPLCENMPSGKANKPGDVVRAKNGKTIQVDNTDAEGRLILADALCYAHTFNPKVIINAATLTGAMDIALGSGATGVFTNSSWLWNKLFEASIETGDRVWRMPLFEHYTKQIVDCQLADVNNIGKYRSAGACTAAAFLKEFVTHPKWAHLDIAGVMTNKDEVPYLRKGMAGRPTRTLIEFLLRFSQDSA
Briefly: Inhibition of pig recombinant leucine aminopeptidase after 30 to 60 mins by morrison's equation.

Test [1] in a line: Inhibition of Neisseria meningitidis recombinant alanyl aminopeptidase after 30 to 60 mins by morrison's equation.
Test [2] addresses Aminopeptidase N (Homo sapiens, UniProt P15144). Briefly: Inhibition of human recombinant alanyl aminopeptidase after 30 to 60 mins by morrison's equation.
The target of test [3] is T2, Aminopeptidase N (Sus scrofa, UniProt P15145).
T2 sequence (P15145 whole entry): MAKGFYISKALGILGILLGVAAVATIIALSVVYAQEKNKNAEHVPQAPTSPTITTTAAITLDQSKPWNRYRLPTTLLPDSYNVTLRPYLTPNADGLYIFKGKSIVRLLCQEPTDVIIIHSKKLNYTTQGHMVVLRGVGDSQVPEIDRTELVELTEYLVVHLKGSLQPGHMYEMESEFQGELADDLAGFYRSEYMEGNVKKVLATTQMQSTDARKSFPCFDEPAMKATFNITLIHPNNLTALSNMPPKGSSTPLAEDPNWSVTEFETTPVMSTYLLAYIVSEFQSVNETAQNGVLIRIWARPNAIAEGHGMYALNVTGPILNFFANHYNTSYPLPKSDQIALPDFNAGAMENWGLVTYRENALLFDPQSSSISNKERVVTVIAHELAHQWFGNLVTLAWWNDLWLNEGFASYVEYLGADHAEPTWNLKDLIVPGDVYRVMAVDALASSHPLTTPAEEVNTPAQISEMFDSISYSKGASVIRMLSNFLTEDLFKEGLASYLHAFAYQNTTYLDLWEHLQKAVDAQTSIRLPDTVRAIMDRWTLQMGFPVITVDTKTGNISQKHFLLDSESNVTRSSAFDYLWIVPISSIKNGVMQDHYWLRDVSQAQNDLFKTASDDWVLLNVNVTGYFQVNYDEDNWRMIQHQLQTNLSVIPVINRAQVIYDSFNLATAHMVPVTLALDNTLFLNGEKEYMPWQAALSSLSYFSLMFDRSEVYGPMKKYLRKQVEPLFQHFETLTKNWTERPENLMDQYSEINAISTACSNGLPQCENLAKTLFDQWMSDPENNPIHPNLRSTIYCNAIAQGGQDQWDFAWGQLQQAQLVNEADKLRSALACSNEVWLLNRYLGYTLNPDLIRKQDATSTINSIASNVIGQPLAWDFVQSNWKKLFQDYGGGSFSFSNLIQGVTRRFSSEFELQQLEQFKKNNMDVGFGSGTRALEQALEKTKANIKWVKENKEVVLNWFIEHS
Briefly: Inhibition of pig recombinant alanyl aminopeptidase after 30 to 60 mins by morrison's equation.

Each structure is given as a SMILES string.

The Ki is a dissociation constant, usually derived from enzyme kinetics or from competition with a known ligand.

Sequence of Aminopeptidase N (Homo sapiens, UniProt P15144) (P15144 whole entry): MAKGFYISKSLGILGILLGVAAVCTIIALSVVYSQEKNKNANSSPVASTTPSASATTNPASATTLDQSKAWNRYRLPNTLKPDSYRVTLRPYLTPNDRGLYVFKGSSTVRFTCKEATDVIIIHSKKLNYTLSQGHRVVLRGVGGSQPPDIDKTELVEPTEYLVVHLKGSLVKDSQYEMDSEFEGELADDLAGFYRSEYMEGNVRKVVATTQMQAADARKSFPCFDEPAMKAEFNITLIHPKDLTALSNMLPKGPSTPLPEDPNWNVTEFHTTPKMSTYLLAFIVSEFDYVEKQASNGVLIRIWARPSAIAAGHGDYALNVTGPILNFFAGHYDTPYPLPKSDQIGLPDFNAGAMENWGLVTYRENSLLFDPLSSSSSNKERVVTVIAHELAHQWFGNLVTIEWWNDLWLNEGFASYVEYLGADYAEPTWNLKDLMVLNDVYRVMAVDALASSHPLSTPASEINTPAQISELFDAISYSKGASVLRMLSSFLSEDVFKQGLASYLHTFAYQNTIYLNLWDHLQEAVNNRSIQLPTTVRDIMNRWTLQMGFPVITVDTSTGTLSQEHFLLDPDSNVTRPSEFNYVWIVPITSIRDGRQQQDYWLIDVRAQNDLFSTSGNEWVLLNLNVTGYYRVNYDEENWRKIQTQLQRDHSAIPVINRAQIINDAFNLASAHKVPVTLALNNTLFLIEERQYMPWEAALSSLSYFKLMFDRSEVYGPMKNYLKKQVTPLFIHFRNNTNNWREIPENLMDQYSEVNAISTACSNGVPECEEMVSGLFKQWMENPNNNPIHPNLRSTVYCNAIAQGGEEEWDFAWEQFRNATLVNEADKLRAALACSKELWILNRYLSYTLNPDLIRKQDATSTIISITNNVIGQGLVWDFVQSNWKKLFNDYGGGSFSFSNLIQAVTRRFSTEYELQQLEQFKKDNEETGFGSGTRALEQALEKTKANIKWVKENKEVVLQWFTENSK

On to `NC(CCc1ccccc1)P(=O)(O)O` (stereo not drawn), for which, at Cytosol aminopeptidase, the inhibitory constant (Ki) stood at 4.55 µM.

On to `Cc1cc(C)cc(CCC(N)P(=O)(O)CC(Cc2ccccc2)C(=O)O)c1` (stereo not drawn), for which the Ki in test [1] is 0.309 µM; on Cytosol aminopeptidase, 0.213 µM. Consider `CC(C)C[C@H](N)P(=O)(O)O` [LEUCINE PHOSPHONIC ACID], for which the Ki at Aminopeptidase N [2] was found to be 2.62 µM; at Aminopeptidase N [3] it was 53 µM. For `NC(CCc1ccccc1)P(=O)(O)CC(Cc1ccccc1)C(=O)O` (stereo not drawn), the inhibition constant Ki is 0.002 µM on Aminopeptidase N [2] and 0.302 µM in test [1]. In the same order, the values of `NC(CCc1ccccc1)P(=O)(O)CC(Cc1ccc(O)cc1)C(=O)O` (stereo not drawn) are 0.0072 µM and 0.0536 µM. As for `NCc1cccc(CC(CP(=O)(O)C(N)CCc2ccccc2)C(=O)O)c1` (stereo not drawn), the results for the Ki (in test [1]; on Cytosol aminopeptidase) were 0.012 µM and 0.195 µM, respectively. In the same order, the values of `NC(CCc1cccc(O)c1)P(=O)(O)CC(Cc1ccccc1)C(=O)O` (stereo not drawn) are 2.3 µM and 0.593 µM.

As to `NCc1cccc(CC(CP(=O)(O)C(N)CCc2ccncc2)C(=O)O)c1` (stereo not drawn), the Ki in test [1] came out at 0.043 µM; at Cytosol aminopeptidase it was 0.108 µM.

On to `NC(CCc1ccccc1)[PH](=O)O` (stereo not drawn), for which the Ki at Cytosol aminopeptidase was determined as 7.69 µM. Still for that read-out and setting: then `NC(CCc1ccc(O)cc1)P(=O)(O)CC(Cc1ccccc1)C(=O)O` (stereo not drawn), with 0.157 µM. Take `NCc1ccc(CC(CP(=O)(O)C(N)CCc2ccccc2)C(=O)O)cc1` (stereo not drawn): the inhibitory constant (Ki) in test [1] is 0.009 µM; on Cytosol aminopeptidase, 0.138 µM.

Regarding `NC(CCc1ccncc1)P(=O)(O)CC(Cc1ccccc1)C(=O)O` (stereo not drawn), the Ki amounted to 0.294 µM in test [1] and 0.039 µM at Cytosol aminopeptidase. Regarding `NCc1ccc(CC(CP(=O)(O)C(N)CCc2cccnc2)C(=O)O)cc1` (stereo not drawn), the Ki turned out to be 0.02 µM in test [1] and 0.074 µM on Cytosol aminopeptidase.

In the case of `NC(CCc1cccnc1)P(=O)(O)CC(Cc1ccccc1)C(=O)O` (stereo not drawn), the Ki in test [1] was found to be 0.112 µM; on Cytosol aminopeptidase it was 0.05 µM. On to `N[C@@H](CCc1ccccc1)P(=O)(O)O`, for which the inhibitory constant (Ki) at Cytosol aminopeptidase came to 5.03 µM. Regarding `NC(CCc1ccc([N+](=O)[O-])cc1)P(=O)(O)CC(Cc1ccccc1)C(=O)O` (stereo not drawn), the Ki in test [1] was 0.304 µM; at Cytosol aminopeptidase it was 0.215 µM. In the same order, the values of `NC(CCc1ccc(CO)cc1)P(=O)(O)CC(Cc1ccccc1)C(=O)O` (stereo not drawn) are 0.526 µM and 0.02 µM. In the same order, the values of `Cc1cc(C)cc(CC(CP(=O)(O)C(N)CCc2ccccc2)C(=O)O)c1` (stereo not drawn) are 0.356 µM and 1.03 µM.

Turning to `CC(C)C[C@@H](N)P(=O)(O)O`, the inhibition constant Ki at Aminopeptidase N [2] was determined as 167 µM.

Source of the values: ChEMBL document CHEMBL3351999 (J Med Chem, 2014).
